For experiment [1], the system named is hippocampal pyramidal cell layer. In words: Blinded histological evaluation of brain sections after 5-min bilateral carotid occlusion. It is filed as in vivo, gerbil. Particulars: for Protection of the animal's neurons (in words): as monitored by motor activity or histology; for Average Histopathology Score: Example 2, saline 4.8, scale 0-5 of Table 4. The source says: (§1) The present example is based on a surgical procedure that has been developed to study the effects of cerebral or brain ischemia in the unanesthetized gerbil. The methodology is based upon the surgical isolation and instrumentation of both common carotid arteries. A loop of dental floss is placed around each carotid artery and passed through a double lumen catheter material; this allows for later occlusion of the carotid arteries and their release in the unanesthetized subject. […] Behavioral changes consequent to stroke are useful and pertinent as a means of evaluation in this model of nonlethal transient ischemia Emotional lability, depression, agitation and motor and cognitive deficits are common after stroke. The psychomotor depression noted immediately after transient ischemia in this gerbil model mimics the clinical situation in humans. Spontaneous motor activity is an indicator of aroused state and is a behavior commonly measured in psychopharmacology research. Changes in locomotor activity have been shown in extensive pharmacological and toxicology studies to provide reliable, reproducible first-assessment data about neurological status. The details of this method are more fully set forth in Chandler, M.J. et al., J. Pharm. Meth. 14:137-146 (1985).
(§2) Ligatures externalized through double lumen catheters were surgically placed around both common carotid arteries of mature (50-60 gram) gerbils. After allowing recovery from surgery, conscious gerbils were subjected to a 5 minute period of bilateral carotid occlusion by tightening the ligatures. Spontaneous motor activity was then periodically monitered over seven days followed by animal sacrifice and blinded histological evaluation of brain sections. EGF (0.1 and 1.0 mg/kg) and FGF (0.1, 1.0 and 10.0 mg/kg) were given intraperitoneally in saline at one hour pre-occlusion and one, three, five and seven hours post-occlusion. Two control groups (occluded and non-occluded) received saline by the same route.
(§3) Gerbils were treated as in Example 1, except that dosing was at 1,3,5 and 7 hours post-occlusion only.

Experiment [2] concerns gerbils. In words: Spontaneous locomotor activity after 5-min bilateral carotid occlusion (photocell activity chambers). It is filed as in vivo, gerbil. Particulars: for Motor Activity at 24 hours: Example 2, saline 3028; for Spontaneous locomotor activity: Table 1, mean of 6 gerbils.
Text: as §1, §2
Spontaneous locomotor activity was recorded using photocell activity chambers. The chambers were two-foot circular arenas that were individually housed in sound attenuating compartments ventilated by a fan. Activity was monitored by two orthogonally placed photocell circuits. A single break of the photocell light beam by the animal's movements defined an activity count counts were monitored and recorded as a function of time. The data in Tables 1 and 2 represent activity counts.
as §3

The mark [3] stands for this setting: 0.01 mg/kg i.p. at 1,3,5,7 h post-occlusion only.
[4] abbreviates: 0.1 mg/kg i.p. at 1,3,5,7 h post-occlusion only.
The mark [5] stands for this setting: 1 mg/kg i.p. at 1,3,5,7 h post-occlusion only.

As to “EGF: epidermal growth factor; polypeptide growth factor (human EGF is fifty-three amino acids); source of tested material not stated”, the “Protection of the animal's neurons (in words)” value is “modest protection” in experiment [1] (0.1 mg/kg i.p. pre- and post-occlusion); “almost total protection” in experiment [1] (1 mg/kg i.p. pre- and post-occlusion). The “Average Histopathology Score” value in experiment [1] (setting [3]) came out at 4.7; in experiment [1] (setting [4]) it was 1.5; in experiment [1] (setting [5]) it was 2.2. For the same substance, the “Motor Activity at 24 hours” value in experiment [2] (setting [3]) came out at 1891; in experiment [2] (setting [4]), 1051; in experiment [2] (setting [5]), 715. The Spontaneous locomotor activity in experiment [2] (0.1 mg/kg i.p. at 1 h pre- and 1,3,5,7 h post-occlusion, 6 h after ischemia, saline post-ischemic 2366, non-ischemic 485) was found to be 1511 activity counts; in experiment [2] (0.1 mg/kg i.p. at 1 h pre- and 1,3,5,7 h post-occlusion, 24 h after ischemia, saline post-ischemic 1960, non-ischemic 529) it was 658 activity counts; in experiment [2] (0.1 mg/kg i.p. at 1 h pre- and 1,3,5,7 h post-occlusion, 48 h after ischemia, saline post-ischemic 2145, non-ischemic 613), 687 activity counts; in experiment [2] (0.1 mg/kg i.p. at 1 h pre- and 1,3,5,7 h post-occlusion, 72 h after ischemia, saline post-ischemic 1011, non-ischemic 579) it was 715 activity counts; in experiment [2] (0.1 mg/kg i.p. at 1 h pre- and 1,3,5,7 h post-occlusion, 96 h after ischemia, saline post-ischemic 895, non-ischemic 493), 626 activity counts; in experiment [2] (0.1 mg/kg i.p. at 1 h pre- and 1,3,5,7 h post-occlusion, 120 h after ischemia, saline post-ischemic 486, non-ischemic 463), 511 activity counts. The Spontaneous locomotor activity in experiment [2] (1.0 mg/kg i.p. at 1 h pre- and 1,3,5,7 h post-occlusion, 6 h after ischemia, saline post-ischemic 2366, non-ischemic 485) turned out to be 705 activity counts; in experiment [2] (1.0 mg/kg i.p. at 1 h pre- and 1,3,5,7 h post-occlusion, 24 h after ischemia, saline post-ischemic 1960, non-ischemic 529) it was 766 activity counts; in experiment [2] (1.0 mg/kg i.p. at 1 h pre- and 1,3,5,7 h post-occlusion, 48 h after ischemia, saline post-ischemic 2145, non-ischemic 613) it was 588 activity counts; in experiment [2] (1.0 mg/kg i.p. at 1 h pre- and 1,3,5,7 h post-occlusion, 72 h after ischemia, saline post-ischemic 1011, non-ischemic 579), 463 activity counts; in experiment [2] (1.0 mg/kg i.p. at 1 h pre- and 1,3,5,7 h post-occlusion, 96 h after ischemia, saline post-ischemic 895, non-ischemic 493), 445 activity counts; in experiment [2] (1.0 mg/kg i.p. at 1 h pre- and 1,3,5,7 h post-occlusion, 120 h after ischemia, saline post-ischemic 486, non-ischemic 463), 314 activity counts.

Source of the values: patent publication US5057494A, “Method for preventing tissue damage after an ischemic episode” (Ethicon, Inc., priority 1988, dated 1991).
